Assay results published in patent publication US20170266186A1, “USE OF INHIBITORS OF BRUTON'S TYROSINE KINASE (BTK)” (Pharmacyclics LLC, priority 2011, published 2017).

Tests used:
[1] = test system: LY19; test: growth inhibition by PCI-32765, LY19; type: cell-based; conditions: Homo sapiens; LY19, DLBCL, GCB (CARD11)
[2] = test system: Mino; test: growth inhibition by PCI-32765, Mino; type: cell-based; conditions: Homo sapiens, Mantle cell
[3] = test system: DB; test: growth inhibition by PCI-32765, DB; type: cell-based; conditions: Homo sapiens, DLBCL
[4] = test system: primary MCL cells; test: adhesion of primary MCL cells; conditions: Homo sapiens, read-out: inhibition of CXCL12 or CXCL13 activated adhesion to VCAM1 and BCR stimulated adhesion to fibronectin
[5] = test system: MCL patients; test: ALC and tumor volume (SPD) in MCL patients treated with ibrutinib
[6] = test system: DOHH2; test: growth inhibition by PCI-32765, DOHH2; type: cell-based; conditions: Homo sapiens, DOHH-2; DOHH2, FL-transformed
[7] = test system: LY3; test: growth inhibition by PCI-32765, LY3; type: cell-based; conditions: Homo sapiens; LY3, DLBCL, ABC (CARD11)
[8] = test system: Jekol and HBL1 cells; test: adhesion assay, anti-IgM stimulated; conditions: Homo sapiens, HBL1, read-out: inhibition of anti-IgM stimulated adhesion onto fibronectin or VCAM1
[9] = test system: Mino cells; test: actin polymerization in Mino cells (phalloidin); type: cell-based, human; conditions: 10 and 100 nM (p<0.001)
[10] = test system: plasma chemokines and cytokines; test: plasma chemokine and cytokine concentrations of ibrutinib treated MCL patients
[11] = test system: pBtk (Y223, Y551), pPLCy2; conditions: primary MCL and normal B cells
[12] = test system: Jeko-1; test: growth inhibition by PCI-32765, Jeko-1; type: cell-based; conditions: Homo sapiens; Jeko-1, Mantle cell
[13] = test system: Mino cells; test: migration assay, CXCL13 stimulated; conditions: dose-dependently from 1 nM to 1 μM
[14] = test system: Btk, PLCy2, Erk, JNK and Akt phosphorylation; test: Btk signaling in MCL cell lines after anti-IgM, CXCL12 and CXCL13 stimulation; conditions: following anti-IgM, CXCL12 and CXCL13 stimulations
[15] = test system: LY10; test: growth inhibition by PCI-32765, LY10; type: cell-based; conditions: Homo sapiens; LY10, DLBCL, ABC
[16] = test system: Mino cells; test: adhesion assay, chemokine-mediated, Mino; conditions: Homo sapiens, read-out: inhibition of adhesion to VCAM1 or fibronectin following CXCL12 or CXCL13 activations
[17] = test system: primary MCL; test: actin polymerization of primary MCL in co-culture; conditions: 100 nM (p<0.001)
[18] = test system: DHL-6; test: growth inhibition by PCI-32765, DHL-6; type: cell-based; conditions: Homo sapiens; DHL-6, DLBCL, GCB
[19] = test system: Granta-519; test: growth inhibition by PCI-32765, Granta-519; type: cell-based; conditions: Homo sapiens; Granta-519, Mantle cell
[20] = test system: CD19+CD5+ cells of MCL patients; test: flow cytometry phenotyping of PBMCs of MCL patients before (D1) and after one week (D8) of ibrutinib; type: in vivo, human
Procedure: Blood was drawn from MCL patients enrolled in PCYC-04753 or PCYC-1104 studies in the US in accordance with GCP guidelines provided by ICH and principles of the Declaration of Helsinki with informed consent and in compliance with the protocols approved by the relevant Institutional Review Board(s). The whole blood samples were drawn into sodium heparin CPT tubes (BD), mixed for 5 min then spun at 1500 rcf for 20 min at the collection sites. The samples were shipped overnight to Pharmacyclics with 36 hrs. In a laminar flow hood, the PBMCs were removed from the top layer of the tubes, washed with PBS, and frozen in 90% FBS+10% DMSO (Sigma, St Louis, Mo.) in liquid nitrogen until use.
Frozen PBMCs were thawed in a 37° C. water bath, resuspended in RPMI+10% FBS, and recovered in a 37° C., 5% CO2 incubator in 5 ml polypropylene tubes (BD-Falcon) for 2 hours before phenotyping analysis. The PBMCs were washed with PBS+2% FBS, pelleted and resuspended in PBS+2% FBS containing phenotyping surface antibodies. All staining cocktails were run in duplicate tubes. The cells were stained for 30 minutes, washed with PBS, pelleted at 1300 rpm for 5 min, then fixed in PBS+1.6% paraformaldehyde (Electron Microscopy Services, Hatfield, Pa.).
BD FACS Canto II (BD, San Jose, Calif.) was used for all flow cytometry collection. The instrument was maintained according to manufacturer's recommendations. CS&T beads (BD) are used daily for baseline and reproducibility measurements according to manufacturer's instructions. Phosphoflow assays were stained and performed as described. The above antibodies were used with BD CompBead Plus to establish compensation settings and antibody staining consistency. 10,000 CD19^+ cells were collected from each staining sample. The data was analyzed and quantified using FlowJo7.6 (Tree Star, Ashland, Oreg.).

[21] = test system: B cell lymphoma derived cell lines; test: growth inhibition in a subset of B cell lymphoma derived cell lines; type: cell-based; conditions: Homo sapiens, read-out: GI50 values, range
[22] = parameters: species or system human; conditions: in vivo
[23] = test system: pBtk, pPLCy2 and pAkt; conditions: alone or in co-culture with M2 cells
[24] = test system: DHL-10; test: growth inhibition by PCI-32765, DHL-10; type: cell-based; conditions: Homo sapiens; DHL-10, DLBCL, GCB
[25] = test system: WSU-NHL; test: growth inhibition by PCI-32765, WSU-NHL; type: cell-based; conditions: Homo sapiens, FL-transformed

C=CC(=O)N1CCC[C@@H](n2nc(-c3ccc(Oc4ccccc4)cc3)c3c(N)ncnc32)C1 [PCI-32765, (R)-1-(3-(4-amino-3-(4-phenoxyphenyl)-1H-pyrazolo[3,4-d]pyrimidin-1-yl)piperidin-1-yl)prop-2-en-1-one]
GI50 [1]: > 10000 nM | GI50 [2]: 150 nM | GI50 [3]: > 10000 nM | inhibition at 0.1 µM [4]: 10 to 20% | increase in ALC ([5]; Phase 2, 560 mg per day, following 2-4 weeks of drug treatment): 100-150% | reduction of tumor volumes (Sum of Perpendicular Diameters, SPD), on average ([5]; Phase I, MCL patients (n=9), evaluations following 2, 4 and 6 cycles): 80% | GI50 [6]: 120 nM | GI50 [7]: > 10000 nM | inhibition at 0.1 µM [8]: 50 to 70% | CXCL12-increased cortical actin of Mino cells [9]: dose-dependently and significantly inhibited | reduction of plasma chemokines such as MDC, MIP-1β, and CXCL13 ([10]; after one week of treatment): 40-60% | reduction of IL-10 and TNF-α ([10]; by the end of the first cycle of treatment): 50% | reduction of chemokines MDC, MIP-1β, CXCL13 and CXCL17, on average ([10]; following one week of treatment): more than 50% | concentrations inhibiting pBtk (Y223, Y551) and reducing pPLCy2 (Y759, Y1217) [11]: ≥ 10 nM | GI50 [12]: > 10000 nM | CXCL13 stimulated migration of Mino cells [13]: significantly inhibited | phosphorylation of Btk and downstream PLCy2, Erk, JNK and Akt [14]: inhibited | GI50 [15]: 100 nM | inhibition at 0.1 µM [16]: 50 to 70% | actin polymerization of primary MCL in co-culture [17]: suppressed | GI50 [18]: 180 nM | GI50 [19]: > 10000 nM | absolute count and percentage of CD19+CD5+ cells in the lymphocyte population ([20]; after one week of ibrutinib treatment, p<0.05): significantly increased | intracellular Ki67 expression ([20]; after treatment, p<0.05): significantly reduced | pErk expression in CD20+CD5+ cells ([20]; differences not statistically significant): reduced | surface expression of CXCR4 in the CD19+CD5+ population ([20]; following one week of drug treatment, p<0.05): significantly reduced | CD38+ cells among CD19+CD5+ cells ([20]; following treatment, p<0.01): significantly decreased | CD19+CD3− population of gated lymphocytes ([20]; illustrative patient, after one week of treatment, before 9.29%): 63% | CD19+CD5+ population ([20]; illustrative patient, after one week of treatment, before 84.4%): 98.8% | GI50 [21]: 100 to 5500 nM | DLTs at the final dose level [22]: No DLTs were observed | dose limiting toxicities (DLTs) documented [22]: Two | pBtk, pPLCy2 and pAkt in Mino cells [23]: dose-dependently inhibited | GI50 [24]: 3700 nM | GI50 [25]: 120 nM
